Read-outs that look alike come from different tables or passages of the source.
Columns and labels:
[1] = system: RNA Polymerase II Serine 5 phosphorylation (Rpb1 CTD, downstream substrate of CDK7) in A549 cells; assay: Imaging-based cellular RNA PolII Ser5 phosphorylation assay in A549 cells; assay type: cell-based, human; settings: wild-type CDK7, RNA PolII Ser5 phosphorylation, averaged over all measurements; for IC50: Homo sapiens, A549, A549 cells, read-out: CDK7_A549 Wild-type CDK7 (pIC50) (converted); for CDK7_A549 Wild-type CDK7 (pIC50): A549 cells
How it was run: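 IC50 derived by fitting % control (DMSO high, 10 μM reference low) against concentration, with Hill slope. Readout: high-content imaging of phospho-Ser5 Rpb1 CTD antibody staining in fixed, permeabilized A549 cells exposed to compound 3 h after 20 h culture in 1% FBS DMEM.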

[2] = system: RNA Polymerase II Serine 5 phosphorylation in A549 cells overexpressing CDK7-mutant (C312S); assay: Imaging-based cellular RNA PolII Ser5 phosphorylation assay in A549 cells overexpressing CDK7-mutant (C312S); assay type: cell-based, human; settings: RNA PolII Ser5 phosphorylation, averaged over all measurements; for IC50: Homo sapiens, A549, A549 cells overexpressing CDK7-mutant (C312S), read-out: CDK7_A549 mutant hCDK7(pIC50) (converted); for CDK7_A549 mutant hCDK7(pIC50): A549 cells overexpressing CDK7-mutant (C312S)
How it was run: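 Readout was automated imaging of anti-phospho-Ser5 Rpb1 CTD immunofluorescence, with IC50 fitted to % control versus concentration. Cells were A549 stably overexpressing non-covalently targetable CDK7 C312S alongside wild-type, exposed to compound 3 h at 37 °C. DMSO and 10 μM reference compound served as controls.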

[3] = target: CDK7/cyclinH/MAT1 trimeric complex (Homo sapiens, UniProt P50613); assay: In vitro CDK7 assay, potency of irreversible covalent inhibitors (kinact/KI), coupled PK/LDH ADP readout at 340 nm; settings: for Ki: CDK7 (20 nM enz.) (KI, μM); for Ki / CDK7 (20 nM enz.) (kinact/KI, M^−1*s^−1) / CDK7 (20 nM enz.) (kinact, s^−1): 20 nM enzyme; for kinact: read-out: CDK7 (20 nM enz.) (kinact, s^−1), 20 nM enzyme
[4] = read-out: CDK7 (20 nM enz.) (kinact/KI, M^−1*s^−1), 20 nM enzyme

CDK7/cyclinH/MAT1 trimeric complex, sequence (P50613 whole entry): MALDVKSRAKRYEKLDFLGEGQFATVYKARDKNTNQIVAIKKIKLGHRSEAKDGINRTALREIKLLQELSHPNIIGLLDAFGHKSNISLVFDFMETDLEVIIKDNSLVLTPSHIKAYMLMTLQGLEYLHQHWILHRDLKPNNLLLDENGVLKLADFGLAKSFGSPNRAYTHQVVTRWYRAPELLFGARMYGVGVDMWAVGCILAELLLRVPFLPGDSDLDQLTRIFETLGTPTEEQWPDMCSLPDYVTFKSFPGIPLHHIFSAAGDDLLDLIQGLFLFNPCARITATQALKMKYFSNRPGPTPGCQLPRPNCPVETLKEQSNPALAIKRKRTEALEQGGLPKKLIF
CDK7/cyclinH/MAT1 trimeric complex, sequence (P51946 whole entry partner): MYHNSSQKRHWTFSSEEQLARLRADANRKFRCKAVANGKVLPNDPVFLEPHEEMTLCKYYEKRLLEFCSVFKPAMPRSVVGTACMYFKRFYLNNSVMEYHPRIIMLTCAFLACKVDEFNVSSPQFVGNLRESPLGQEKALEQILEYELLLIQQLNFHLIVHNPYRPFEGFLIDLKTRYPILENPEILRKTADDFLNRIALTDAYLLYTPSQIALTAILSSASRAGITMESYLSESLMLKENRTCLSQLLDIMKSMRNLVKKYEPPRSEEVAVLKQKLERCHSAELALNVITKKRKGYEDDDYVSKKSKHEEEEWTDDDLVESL
CDK7/cyclinH/MAT1 trimeric complex, sequence (P51948 whole entry partner): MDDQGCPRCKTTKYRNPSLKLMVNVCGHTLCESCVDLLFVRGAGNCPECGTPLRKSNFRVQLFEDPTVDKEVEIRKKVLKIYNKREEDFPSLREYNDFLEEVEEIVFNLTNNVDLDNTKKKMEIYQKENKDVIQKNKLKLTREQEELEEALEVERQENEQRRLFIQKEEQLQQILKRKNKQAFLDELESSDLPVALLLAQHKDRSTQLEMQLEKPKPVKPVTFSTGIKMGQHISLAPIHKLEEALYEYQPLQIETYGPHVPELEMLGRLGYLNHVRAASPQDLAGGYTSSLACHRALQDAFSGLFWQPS

SMILES	IC50 [1]	IC50 [2]	Ki [3]	kinact [3]	kinact/KI [3, 4]	CDK7_A549 Wild-type CDK7 (pIC50) [1]	CDK7_A549 mutant hCDK7(pIC50) [2]	CDK7 (20 nM enz.) (kinact/KI, M^−1*s^−1) [3]	CDK7 (20 nM enz.) (kinact, s^−1) [3]	kinact/KI ([3]; read-out: CDK7 (20 nM enz.) (kobs/[I], M^−1*s^−1), 20 nM enzyme)
C=CC(=O)N1CC[C@@H](N2CC(c3cc4c(c(C)n3)O[C@H](C)c3c(N5CCOCC5)ccnc3N4)C2)C1 (single isomer, unassigned) [Compound 457]	0.0912 µM	> 10 µM	0.214 µM	0.000104 s⁻¹	485 M⁻¹ s⁻¹					
C=CC(=O)N1CC[C@H](N2CC(c3cc4c(c(C5CC5)n3)OCc3c(N5CCOCC5)ccnc3N4)C2)C1 (single isomer, unassigned) [Compound 421]			0.064 µM	7.59e-05 s⁻¹		7.02	5	1185.66 M⁻¹ s⁻¹		
C=CC(=O)N1CC(N2CCC(c3cc4c(c(C)n3)OCc3c(-c5cnn(C)c5)ccnc3N4)CC2)C1 [Compound 314]			0.0655 µM			7.14	<5	602.565 M⁻¹ s⁻¹	3.945e-05 s⁻¹	
C=CC(=O)N1CC(N2CC[C@@H](c3cc4c(c(C)n3)O[C@@H](C)c3c(N5CCOCC5)ccnc3N4)C2)C1 (single isomer, unassigned) [Compound 243]	0.126 µM	> 10 µM	0.0802 µM	3.93e-05 s⁻¹	490 M⁻¹ s⁻¹					
C=CC(=O)N1CC[C@H](N2CC(c3cc4c(c(C)n3)OCc3c(-c5cnn(C)c5)ccnc3N4)C2)C1 (single isomer, unassigned) [Compound 199]	0.288 µM	> 10 µM	0.449 µM	3.63e-05 s⁻¹	80.8 M⁻¹ s⁻¹					
C=CC(=O)N1CCC(c2nc(C)c(-c3cc(C)c4c(c3)Nc3nccc(C5CCOCC5)c3CO4)c(C)n2)CC1 [Compound 116]	0.398 µM	> 10 µM	0.293 µM	5.05e-05 s⁻¹	173 M⁻¹ s⁻¹					
C=CC(=O)N1CC(N2CCC(c3ccc4c(c3)Nc3nccc(C5CCOCC5)c3CO4)CC2)C1 [Compound 123]			0.0244 µM	3.4e-05 s⁻¹	1390 M⁻¹ s⁻¹	7.15	<5			
CC#CC(=O)N1CCC(N2CC(c3cc(C)c4c(c3)Nc3nccc(C5CCOCC5)c3CO4)C2)C1 (stereo not shown) [Compound 274]	0.174 µM	> 10 µM	0.0714 µM	3.45e-05 s⁻¹	483 M⁻¹ s⁻¹					
C=CC(=O)N1CC(N2CCCN(C)[C@H](c3cc(C)c4c(c3)Nc3nccc(C5CCOCC5)c3CO4)C2)C1 (single isomer, unassigned) [Compound 255]	3.02 µM	> 10 µM	10.7 µM	3.55e-05 s⁻¹	3.33 M⁻¹ s⁻¹					
C=CC(=O)N1CC[C@H](N2CC(c3cc4c(c(C5CC5)n3)OCc3c(N5CCOCC5)ccnc3N4)C2)C1 (single isomer, unassigned) [Compound 447]			0.143 µM			6.77	~5	551.654 M⁻¹ s⁻¹	7.882e-05 s⁻¹	
C=CC(=O)N1CC(N2CCC(c3ccc4c(c3)Nc3nccc(N5CCS(=O)(=NC)CC5)c3CO4)CC2)C1 [Compound 84]	0.575 µM	> 10 µM	0.191 µM	6.74e-05 s⁻¹	354 M⁻¹ s⁻¹					
C=CC(=O)N1CC(N2CC(c3ccc4c(c3)Nc3nccc(N5CCOCC5)c3CO4)C2)C1 [Compound 88]	0.162 µM	> 10 µM								1050 M⁻¹ s⁻¹
CC#CC(=O)N1CC(N2CC[C@@H](c3cc4c(c(C)n3)O[C@H](C)c3c(N5CCOCC5)ccnc3N4)N(C)CC2)C1 (single isomer, unassigned) [Compound 527]	9.77 µM	> 10 µM	1.81 µM	1.58e-05 s⁻¹	8.74 M⁻¹ s⁻¹					
C=CC(=O)N1CCC(N2CC(c3cc(Cl)c4c(c3)Nc3nccc(C5CCOCC5)c3CO4)C2)CC1 [Compound 148]	0.0372 µM	5.5 µM	0.0507 µM	3.38e-05 s⁻¹	666 M⁻¹ s⁻¹					
C=CC(=O)N1CC(N2CCC(c3cc(Cl)c4c(c3)Nc3nccc(N5CCS(=O)(=O)CC5)c3CO4)CC2)C1 [Compound 103]	0.126 µM	> 10 µM	0.0424 µM	8.56e-05 s⁻¹	2020 M⁻¹ s⁻¹					

— US20240254138A1, “TRICYCLIC PYRIMIDINES AS CYCLIN-DEPENDENT KINASE 7 (CDK7) INHIBITORS” (JANSSEN PHARMACEUTICA NV, priority 2021, published 2024)
